Test results as given in patent US20170283404A1, “CRYSTALLINE FORMS OF 2-(4-(4-ETHOXY-6-OXO-1,6-DIHYDROPYRIDIN-3-YL)-2-FLUOROPHENYL)-N-(5-(1,1,1-TRIFLUORO-2-METHYLPROPAN-2-YL)ISOXAZOL-3-YL)ACETAMIDE” (GLAXOSMITHKLINE INTELLECTUAL PROPERTY DEVELOPMENT LIMITED, priority 2014, published 2017).

Test: Drying of crystalline form in vacuum oven (solid-state stability)
Assay type: physicochemical
Settings: vacuum oven at 50° C. with a nitrogen bleed for about 17 hours

change in form by Raman or XRPD after drying: no change in form
change to the water content by TGA after drying: no change to the water content
Compound: CCOc1cc(=O)[nH]cc1-c1ccc(CC(=O)Nc2cc(C(C)(C)C(F)(F)F)on2)c(F)c1 [Compound A—Monohydrate, 2-(4-(4-ethoxy-6-oxo-1,6-dihydropyridin-3-yl)-2-fluorophenyl)-N-(5-(1,1,1-trifluoro-2-methylpropan-2-yl)isoxazol-3-yl)acetamide]
